The values that follow come from patent US9950989B2, “Cyclic hydrocarbon compound” (TOA EIYO LTD., priority 2014, dated 2018).

One experiment can be described thus: biochemical. Also on record: species or system Influenza A Virus H1N1.
In another experiment the test system is Male SD rats. Briefly: Atrial effective refractory period (AERP) prolonging effect, atrium electrostimulation model. The experiment is classed as in vivo, rat. As to conditions: anesthetized male SD rats, drug 10 mg/kg/10 min, basic cycle 120 ms, three examples per group.
For experiment [1], the system named is atrial fibrillation model. The note with it: described in Patent Document 1 (JP 2012-236814 A); cited from earlier work.

Where a name gives a salt, the structure may show the parent alone.

Compound `CCC(CC)O[C@@H]1C=C(C(=O)c2cccs2)C[C@H](N)[C@H]1NC(C)=O` [Example 1, N-[(1R,2R,6S)-6-amino-2-(1-ethylpropoxy)-4-(thiophene-2-carbonyl)-3-cyclohexen-1-yl]acetamide] returned an IC50 in “biochemical” of 71.7 µM. The compound further showed a ΔAERP prolongation with Male SD rats of 40.0 ms.
Take `CCC(CC)O[C@@H]1C=C(C(=O)c2ccc(C)o2)C[C@H](N)[C@H]1NC(C)=O` [Example 3, N-[(1R,2R,6S)-6-amino-2-(1-ethylpropoxy)-4-(5-methylfuran-2-carbonyl)-3-cyclohexen-1-yl]acetamide]: the ΔAERP prolongation in the experiment on Male SD rats worked out at 14.5 ms.
For `CCC(CC)O[C@@H]1C=C(C(=O)c2ccc(C)s2)C[C@H](N)[C@H]1NC(C)=O` [Example 4, N-[(1R,2R,6S)-6-amino-2-(1-ethylpropoxy)-4-(5-methylthiophene-2-carbonyl)-3-cyclohexen-1-yl]acetamide], the IC50 in “biochemical” is 66.3 µM.
In the case of `CCC(CC)O[C@@H]1C=C(C(=O)c2ccc(F)cc2)C[C@H](N)[C@H]1NC(C)=O` [Example 5, N-[(1R,2R,6S)-6-amino-2-(1-ethylpropoxy)-4-(4-fluorobenzoyl)-3-cyclohexen-1-yl]acetamide], the ΔAERP prolongation with Male SD rats is on record as 22.0 ms.
On to `CCC(CC)O[C@@H]1C=C(C(=O)c2ccccc2)C[C@H](N)[C@H]1NC(C)=O.Cl` [Example 6, N-[(1R,2R,6S)-6-amino-4-benzoyl-2-(1-ethylpropoxy)-3-cyclohexen-1-yl]acetamide hydrochloride], for which the IC50 in the experiment “biochemical” worked out at 86 µM. Further, the ΔAERP prolongation in the experiment on Male SD rats came out at 35.7 ms.
As for `CCC(CC)O[C@@H]1C=C(C(=O)Cc2ccccc2)C[C@H](N)[C@H]1NC(C)=O` [Example 7, N-[(1R,2R,6S)-6-amino-2-(1-ethylpropoxy)-4-phenylacetyl-3-cyclohexen-1-yl]acetamide], in the experiment on Male SD rats, the ΔAERP prolongation was 22.0 ms.
Take `CCC(CC)O[C@@H]1C=C(C(=O)C(C)(C)C)C[C@H](N)[C@H]1NC(C)=O` [Example 10, N-[(1R,2R,6S)-6-amino-4-(2,2-dimethylpropionyl)-2-(1-ethylpropoxy)-3-cyclohexen-1-yl]acetamide]: in the experiment with Male SD rats, the ΔAERP prolongation was 16.0 ms.
Take `CCCCC(=O)C1=C[C@@H](OC(CC)CC)[C@H](NC(C)=O)[C@@H](N)C1.Cl` [Example 12, N-[(1R,2R,6S)-6-amino-2-(1-ethylpropoxy)-4-pentanoyl-3-cyclohexen-1-yl]acetamide hydrochloride]: in “biochemical”, half-maximal inhibition (IC50) was put at 47.3 µM. Besides, in the experiment with Male SD rats, the ΔAERP prolongation turned out to be 23.0 ms.
Consider `CCC(CC)O[C@@H]1C=C(C(=O)c2ccccc2)C[C@H](N)[C@H]1NC(=O)c1ccccc1` [Example 16, N-[(1R,2R,6S)-6-amino-4-benzoyl-2-(1-ethylpropoxy)-3-cyclohexen-1-yl]benzamide], for which the ΔAERP prolongation with Male SD rats came out at 18.7 ms.
In turn, `CCC(CC)O[C@@H]1C=C(C(=O)c2ccccc2)C[C@H](N)[C@H]1NC(=O)C(C)(C)C` [Example 17, N-[(1R,2R,6S)-6-amino-4-benzoyl-2-(1-ethylpropoxy)-3-cyclohexen-1-yl]-2,2-dimethylpropionamide] gave an IC50 in the experiment “biochemical” above 300 µM. Besides, the ΔAERP prolongation with Male SD rats is on record as 39.3 ms.
For `CCC(CC)O[C@@H]1C=C(C(=O)c2ccccc2)C[C@H](NC(C)=O)[C@H]1N` [Example 18, N-[(1S,5R,6R)-6-amino-3-benzoyl-5-(1-ethylpropoxy)-3-cyclohexen-1-yl]acetamide] the same measures were above 300 µM and 24.0 ms.
For the compound `CCC(CC)O[C@@H]1C=C(C(O)c2ccccc2)C[C@H](N)[C@H]1NC(C)=O` (stereo partly drawn) [Example 19, N-[(1R,2R,6S)-6-amino-2-(1-ethylpropoxy)-4-(hydroxyphenylmethyl)-3-cyclohexen-1-yl]acetamide], the IC50 in the experiment “biochemical” stood at 87.3 µM.
The compound `CCC(CC)O[C@@H]1C=C(C(=O)c2cccs2)C[C@H](NC(C)=O)[C@H]1N` [Example 21, N-[(1S,5R,6R)-6-amino-5-(1-ethylpropoxy)-3-(thiophene-2-carbonyl)-3-cyclohexen-1-yl]acetamide] registered an IC50 in “biochemical” above 300 µM. This compound also registered a ΔAERP prolongation with Male SD rats of 29.5 ms.
`CCOCC1=C[C@@H](OC(CC)CC)[C@H](NC(C)=O)[C@@H](N)C1` [Example 23, N-[(1R,2R,6S)-6-amino-4-ethoxymethyl-2-(1-ethylpropoxy)-3-cyclohexen-1-yl]acetamide] came in with an IC50 in “biochemical” of 80.1 µM. The same compound came in with a ΔAERP prolongation with Male SD rats of 30.0 ms.
In turn, `CCC(CC)O[C@@H]1CC(C(O)c2ccccc2)C[C@H](N)[C@H]1NC(C)=O` (stereo partly drawn) [Example 24, N-[(1R,2S,6R)-2-amino-6-(1-ethylpropoxy)-4-(hydroxyphenylmethyl)cyclohexyl]acetamide] registered an IC50 in “biochemical” above 300 µM. In addition, the ΔAERP prolongation in the experiment on Male SD rats stood at 20.5 ms.
In the experiment with Male SD rats, `CCC(CC)O[C@@H]1C=C(C(=O)c2cccs2)C[C@H](N)[C@H]1NC(=O)CC(C)C` [Example 25, N-[(1R,2R,6S)-6-amino-2-(1-ethylpropoxy)-4-(thiophene-2-carbonyl)-3-cyclohexen-1-yl]-3-methylbutyramide] displayed a ΔAERP prolongation of 37.7 ms.
In “biochemical”, `CCN[C@@H]1[C@@H](N)CC(C(=O)c2cccs2)=C[C@H]1OC(CC)CC` [Example 26, [(3R,4R,5S)-5-amino-4-ethylamino-3-(1-ethylpropoxy)cyclohexen-1-yl]thiophene-2-yl-methanone] had an IC50 above 300 µM.
`CCNC(=O)N[C@@H]1[C@@H](N)CC(C(=O)c2cccs2)=C[C@H]1OC(CC)CC` [Example 27, [(1R,2R,6S)-6-amino-2-(1-ethylpropoxy)-4-(thiophene-2-carbonyl)cyclohexen-3-yl]-3-ethylurea] gave an IC50 in “biochemical” above 300 µM. The compound also returned a ΔAERP prolongation in the experiment on Male SD rats of 56.0 ms.
`CCCCCCC(=O)C1=C[C@@H](OC(CC)CC)[C@H](NC(C)=O)[C@@H](N)C1` [Example 28, N-[(1R,2R,6S)-6-amino-2-(1-ethylpropoxy)-4-heptanoyl-3-cyclohexen-1-yl]acetamide] registered an IC50 in “biochemical” of 24.6 µM. This lies in the double-digit micromolar range.
With `CCC(CC)O[C@@H]1C=C(C(=O)c2ccc(OC)s2)C[C@H](N)[C@H]1NC(C)=O` [Example 30, N-[(1R,2R,6S)-6-amino-2-(1-ethylpropoxy)-4-(5-methoxythiophene-2-carbonyl)-3-cyclohexen-1-yl]acetamide hydrochloride], in the experiment “biochemical”, the IC50 worked out at 10.6 µM. Against the preceding compound, the IC50 is about 2.3-fold lower.
As to `CCOC(=O)C1=C[C@@H](OC(CC)CC)[C@H](NC(C)=O)[C@@H](N)C1` [Oseltamivir, reference compound], the ΔAERP prolongation with Male SD rats worked out at 15.7 ms. For the same compound, the “atrial fibrillation suppression effect” value in experiment [1] was “has an atrial fibrillation suppression effect”.
